In PMC5913645, “Methyl phenlactonoates are efficient strigolactone analogs with simple structure” (Journal of Experimental Botany, 2017):
Entries after “also recorded” stand apart in the source; their conditions may differ.

Experiments:
[1] = Chemical stability in aqueous solution (UHPLC); type: physicochemical; conditions: aqueous solution pH 6.8, 21 °C, 50 μg ml^−1, monitored at 24 h intervals up to 3 weeks
Procedure: Aqueous solutions of MPs (50 μg ml^−1; pH 6.8) were incubated at 21 °C in amber HPLC vials (adapted from [de Saint Germain et al., 2016]). For sample preparation, 50 μl of an acetone solution (1 mg ml^−1) was diluted to the final concentration with methanol (425 μl), water (500 μl) and 25 μl of 1-indanol (1.0 mg ml^−1 solution in acetone) as internal standard. […] Compounds eluted from the column were detected with a diode array detector. The relative quantity of remaining (non-degraded) product was determined by comparison with the internal standard. Stability was monitored at 24 h intervals up to 3 weeks.

[2] = tested on: Arabidopsis seedlings; experiment: Arabidopsis hypocotyl elongation assay; type: in vivo; conditions: 1.0 μM, continuous red light
Procedure: Sterilized Arabidopsis seeds were sown on half-strength MS (with 0.5% sucrose+1% agar, 0.5 g l^−1 MES, pH 5.7) plates supplemented with MPs or GR24 (at 1.0 μM). Plates were stored at 4 °C in darkness for 3 d. To initiate germination, plates were exposed to continuous white light for 24 h, then transferred to continuous monochromatic red light (20 μmol m^−2 s^−1, 22 °C) conditions for another 4 d. For hypocotyl length measurement, at least 30 seedlings were measured using the freely available ImageJ software (http://rsbweb.nih.gov/ij/) after taking digital photographs. A monochromatic red light source was applied as described previously ([Wu and Yang, 2010]). Light flow rates were measured using a Li250 quantum photometer (Li-Cor, Lincoln, NE, USA).

[3] = tested on: rice d10 mutant; experiment: Rice micro tillering bioassay, d10 mutant; type: in vivo; conditions: 2.5 μM
Procedure: Rice seeds (WT, d3, d10) were surface-sterilized by washing with 70% ethanol for 1 min and then with 2.5% sodium hypochlorite for 15 min. Seeds were then rinsed thoroughly with sterile MilliQ water and incubated in water for 2 d at 30 °C in the dark. Pre-germinated seeds were transferred to filter papers containing half-strength MS medium in 90 mm Petri dishes and incubated at 30 °C under fluorescent white light (130–180 μmol m^−2 s^−1) for 1 week. Seven-day-old seedlings were transferred to 50 ml falcon tubes (one seedling per tube) containing modified half-strength Hoagland nutrient solution and grown in greenhouse. Plants were treated with MPs at 2.5 μM to 2.5 × 10^–7 μM, using GR24 as positive control. The compounds were applied six times, twice a week. Number of tillers per plant, plant height and fresh biomass were measured at final harvest.
Statistical analyses were carried out using the statistical software package R (version 3.2.2). Dose–response curves and half-maximum effective concentrations (EC50) were calculated to determine optimum amount of MPs. The synthetic strigolactone analog GR24 was used as reference to estimate efficacy of selected compounds. EC50 and estimated response were calculated using the drc package (https://cran.r-project.org/web/packages/drc/) with a four parameter logistic curve (dose–response curve) ([Ritz and Streibig, 2005]).

[4] = tested on: S. hermonthica seeds; experiment: Striga hermonthica seed germination bioassay; type: in vivo; conditions: for EC50: Striga hermonthica, concentrations 10^–5 to 10^–12 M; for germination activity, order among the chlorophenyl compounds: species not given
Procedure: Parasitic weed seeds’ (S. hermonthica and P. ramosa) germination activity was studied as described previously ([Jamil et al., 2012]). Six pre-conditioned seed discs were placed in a 90 mm Petri dish containing a filter paper ring wetted with 0.9 ml sterile MilliQ water. Then 50 μl of SL analog solution (10^–5–10^–12 M) was applied on each of the six discs, for each concentration. GR24 solutions with equal concentrations and sterile MilliQ water were included as a positive and negative control, respectively. After application, seeds of S. hermonthica and P. ramosa were incubated in dark at 30 °C for 2 d and at 25 °C for 4 d, respectively. Germination (seeds with radicle emerging through the seed coat) was scored under a binocular microscope, and germination rate (%) was calculated. Statistical analyses were carried out using the statistical software package R (version 3.2.2). Dose–response curves and half-maximum effective concentrations (EC50) were calculated to determine optimum amount of MPs. The synthetic strigolactone analog GR24 was used as reference to estimate efficacy of selected compounds. EC50 and estimated response were calculated using the drc package (https://cran.r-project.org/web/packages/drc/) with a four parameter logistic curve (dose–response curve) ([Ritz and Streibig, 2005]).

[5] = tested on: S. hermonthica seeds; conditions: cited from earlier work
[6] = tested on: P. ramosa seeds; set-up: method as in Wigchert et al., 1999; conditions: ref Wigchert et al., 1999; cited from earlier work
[7] = tested on: parasite seed; conditions: ref Fukui et al., 2013; cited from earlier work
[8] = tested on: P. ramosa seeds; experiment: P. ramosa seed germination bioassay; type: in vivo, Phelipanche ramosa; conditions: 1.0 μM
Procedure: Parasitic weed seeds’ (S. hermonthica and P. ramosa) germination activity was studied as described previously ([Jamil et al., 2012]). Six pre-conditioned seed discs were placed in a 90 mm Petri dish containing a filter paper ring wetted with 0.9 ml sterile MilliQ water. Then 50 μl of SL analog solution (10^–5–10^–12 M) was applied on each of the six discs, for each concentration. GR24 solutions with equal concentrations and sterile MilliQ water were included as a positive and negative control, respectively. After application, seeds of S. hermonthica and P. ramosa were incubated in dark at 30 °C for 2 d and at 25 °C for 4 d, respectively. Germination (seeds with radicle emerging through the seed coat) was scored under a binocular microscope, and germination rate (%) was calculated.

[9] = tested on: Arabidopsis seedlings; experiment: Arabidopsis lateral root density; type: in vivo; conditions: 1.0 μM, 8-day-old seedlings
Procedure: Sterilized Arabidopsis seeds were sown on half-strength MS (with 0.5% sucrose+1% agar, 0.5 g l^−1 MES, pH 5.7) plates supplemented with GR24 or MPs (at 1.0 μM). Plates were stored at 4 °C in darkness for 3 d and then vertically grown at 22 °C in a Percival incubator under long day condition (16 h at 22 °C/8 h at 16 °C day/night, 60% relative humidity, 60–70 μmol m^−2 s^−1 white light) for 8 d. For determining the effect on lateral root density and primary root length, at least 30 seedlings were measured using ImageJ software after scanning roots.

[10] = tested on: Arabidopsis seedlings; set-up: method as in Jia et al. (2016); conditions: ref Jia et al., 2016; cited from earlier work

## COC(=O)/C(=C/OC1C=C(C)C(=O)O1)c1ccc(O)cc1 (centres unmarked) [MP15]
[1]
  stability in comparison with GR24: slightly less stable than GR24
[2]
  inhibition of hypocotyl growth: Apart from MP12 and MP15, all MPs showed significant inhibition

## COC(=O)/C(=C/OC1C=C(C)C(=O)O1)c1ccc(OC)cc1 (centres unmarked) [MP14]
[1]
  stability in comparison with GR24: very similar to that of GR24

## COC(=O)/C(=C\OC1C=C(C)C(=O)O1)c1ccccc1Cl (centres unmarked) [MP10]
[1]
  stability in comparison with GR24: more stable than GR24
[3]
  growth, senescence symptoms and biomass of rice seedlings: stunted the growth and caused senescence symptoms

## COC(=O)C(=COC1C=C(C)C(=O)O1)c1cccc2ccccc12 (centres unmarked) [MP11]
[1]
  stability in comparison with GR24: very similar to that of GR24
[4]; 1.0 μM
  S. hermonthica germination rate: 32%
[4]
  EC50: 1700 nM

## COC(=O)/C(=C/OC1C=C(C)C(=O)O1)c1cccc(F)c1 (centres unmarked) [MP6]
[3]
  growth, senescence symptoms and biomass of rice seedlings: stunted the growth and caused senescence symptoms

## COC(=O)/C(=C/O[C@H]1C=C(C)C(=O)O1)N1C(=O)c2ccccc2C1=O [Nijmegen-1]
[5]; ref Wigchert et al., 1999
  EC50 for S. hermonthica germination relative to GR24: three orders of magnitude higher than GR24
[6]
  seed germination in P. ramosa: potent inducer

## CC1=CC(O/C=C2/C(=O)OCc3ccccc32)OC1=O (centres unmarked) [MP5]
[1]
  stability in comparison with GR24: more stable than GR24; also recorded: most stable compound

## COC(=O)/C(=C/OC1C=C(C)C(=O)O1)c1ccccc1Cl (centres unmarked) [MP9]
[1]
  stability in comparison with GR24: very similar to that of GR24
[4]
  germination activity, order among the chlorophenyl compounds: highest germination activity with MP7 (Cl in para position) followed by MP9 (ortho position) and MP8 (meta position)
[3]
  growth, senescence symptoms and biomass of rice seedlings: stunted the growth and caused senescence symptoms

## CC1=CC(O/C=C(/C=O)c2ccc([N+](=O)[O-])cc2)OC1=O (centres unmarked) [MP12, (E)-3-(4-methyl-5-oxo-2,5-dihydrofuran-2-yloxy)-2-(4-nitrophenyl)acrylaldehyde]
[1]
  stability in comparison with GR24: quite unstable and not detectable even after only 24 h
[2]
  inhibition of hypocotyl growth: Apart from MP12 and MP15, all MPs showed significant inhibition

## CC1=CC(Oc2ccc(Br)cc2)OC1=O (centres unmarked) [4-Br-debranone]
[7]
  activity in inducing parasite seed germination: moderate activity

## COC(=O)/C(=C/OC1C=C(C)C(=O)O1)c1ccccc1[N+](=O)[O-] (centres unmarked) [MP2]
[1]
  stability in comparison with GR24: more stable than GR24
[4]
  EC50: 32 nM
[8]
  P. ramosa germination activity: much higher activity
[3]
  growth, senescence symptoms and biomass of rice seedlings: stunted the growth and caused senescence symptoms

## COC(=O)/C(=C/OC1C=C(C)C(=O)O1)c1cccc(Cl)c1 (centres unmarked) [MP8]
[1]
  stability in comparison with GR24: very similar to that of GR24
[4]
  germination activity, order among the chlorophenyl compounds: highest germination activity with MP7 (Cl in para position) followed by MP9 (ortho position) and MP8 (meta position)
[8]
  P. ramosa germination activity: much higher activity
[9]
  reduction of lateral root number/density: slightly more active than GR24

## COC(=O)/C(=C/OC1C=C(C)C(=O)O1)c1ccc(C)cc1 (centres unmarked) [MP4]
[1]
  stability in comparison with GR24: more stable than GR24

## CC1=CC(O/C=C(/C)c2ccc([N+](=O)[O-])cc2)OC1=O (centres unmarked) [nitro-phenlactone]
[5]; ref Jia et al., 2016
  activity in stimulating S. hermonthica germination: very weak activity
[10]
  effect on lateral root density: did not affect lateral root density
